Measurements as given in patent US8143374B2, “Polypeptide derivatives of parathyroid hormone (PTH)” (The General Hospital Corporation, priority 2006, dated 2012).
Read-outs that look alike come from different tables or passages of the source. Where a SMILES comes first, the peptide text is derived from it. Where no end group is shown, it is not given here. [ ]: non-standard residue; d: D form. Apa = (S)-2-amino-4[(2-amino)pyrimidinyl]methylalanine; Phe(4-guanidino) = N=C(N)Nc1ccc(C[C@H](N)C(=O)O)cc1; Cha = N[C@@H](CC1CCCCC1)C(=O)O; Orn = NCCC[C@H](N)C(=O)O

Tests used:
[1] = target: T1, wild-type human PTHR (Homo sapiens, UniProt Q03431); experiment: Competition binding in intact HKRK-B7 cells with 125I-PTH(1-34) tracer; conditions: for detectable binding to the intact PTHR (in words) / enhancement in apparent PTHR-binding affinity relative to parent peptide / reduction (alteration) of apparent binding affinity for the intact PTHR relative to parent peptide: HKRK-B7 cells; for IC50: intact HKRK-B7 cells, read-out: PTHR-WT (HKRK-B7 cells) IC50; for enhancement in apparent PTHR-binding affinity relative to parent peptide: versus PTH(1-31)NH2; for reduction (alteration) of apparent binding affinity for the intact PTHR relative to parent peptide: versus the respective parent peptide
T1 construct: expressed in transfected cells
T1 sequence (Q03431 27-593): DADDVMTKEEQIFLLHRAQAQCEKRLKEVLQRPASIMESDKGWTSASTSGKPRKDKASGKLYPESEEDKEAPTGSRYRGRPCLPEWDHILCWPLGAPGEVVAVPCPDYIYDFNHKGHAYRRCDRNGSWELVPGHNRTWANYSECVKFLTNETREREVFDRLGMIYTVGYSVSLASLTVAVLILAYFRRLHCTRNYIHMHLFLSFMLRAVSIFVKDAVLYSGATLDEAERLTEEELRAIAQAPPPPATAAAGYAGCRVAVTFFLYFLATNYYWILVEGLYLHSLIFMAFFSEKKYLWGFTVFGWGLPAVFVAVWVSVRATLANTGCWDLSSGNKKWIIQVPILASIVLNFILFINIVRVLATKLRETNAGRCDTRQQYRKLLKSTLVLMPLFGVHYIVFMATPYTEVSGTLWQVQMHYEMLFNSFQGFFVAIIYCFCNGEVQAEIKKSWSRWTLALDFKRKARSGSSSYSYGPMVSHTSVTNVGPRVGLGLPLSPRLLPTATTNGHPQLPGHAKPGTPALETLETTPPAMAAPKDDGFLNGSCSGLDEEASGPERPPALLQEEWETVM
Experimental: Cell Culture—Cells were cultured at 37° C. in a humidified atmosphere containing 5% CO2 in Dulbecco's modified Eagle's medium (DMEM), supplemented with 10% fetal bovine serum (HyClone, Logan Utah), 100 units/ml penicillin G, and 100 ug/ml streptomycin penicillin G/streptomycin (Invitrogen Corp. Carlsbad, Calif.). For binding and cAMP studies performed with the intact PTHR, the HKRK-B7 and ROS 17/2.8 cell lines were used. HKRK-B7 cells are derived from the porcine kidney cell line LLC-PK1 and express, via stable DNA transfection, the wild-type human PTHR at an approximate surface density of 950,000 PTH-binding sites per cell. ROS 17/2.8 cells are rat osteosarcoma cells and express the endogenous PTHR at an approximate surface density of 80,000 PTH-binding sites per cell. The cells were plated and assayed in 24-well plates.
Receptor binding—Binding to the wild-type human PTHR in intact HKRK-B7 cells and ROS 17/2.8 cells was assessed using ^125I-PTH(1-34) as a tracer radioligand, as described (Shimizu, M., (2001) Endocrinology 142:3068-3074). In brief, the cells in 24-well plates (about 500,000 cells per well) were incubated in binding buffer containing radioligand (about 100,000 cpm per well) with or without unlabeled peptide ligand (3×10^−9 to 1×10^−5 M) for four hours at 15° C. The binding mixture was then removed by aspiration, the cells were rinsed three times with binding buffer, lysed in 1 M NaOH, and the entire lysate was counted for gamma-irradiation in a gamma counter. Binding to PTHR-delNt in COS-7 cell membranes was assessed in 96-well, vacuum filtration plates (Multiscreen-Durapore HV, […] membranes, Millipore Corp., Millford, Mass.) using ^125I-[Aib^1,3,M]PTH(1-15)NH2 as a tracer radioligand, as described (Dean, T., (2006) Mol Endocrinol 20:931-942). In brief, cell membranes (20 μg/well) were incubated in membrane binding buffer containing radioligand (30,000 cpm/well) with or without unlabeled peptide ligand (3×10^−9 to 1×10^−5 M) for 90 minutes at 21° C. The plates were then subject to rapid vacuum filtration, the filters were washed once with buffer, detached from the plate and counted for gamma-irradiation in a gamma counter. Non-specific binding was defined as the binding observed in the presence of 1×10^−6 M PTH(1-31)NH2 for HKRK-B7 and ROS 17/2.8 cells, and 1×10^−6 M [Aib^1,3,M]PTH(1-15)NH2 for PTHR-delNt. Specifically bound radioactivity was calculated as a percentage of the radioactivity specifically bound in the absence of competing ligand.
Data and statistical calculations—Data were processed for curve fitting and derivation of IC50 and EC50 values using least-squares, nonlinear regression analysis and the four parameter logistic equation: […], where y, ymin and ymax are the observed, minimum and maximum response values, respectively; x is ligand concentration, and n is the slope factor. In cases where incomplete inhibition of binding occurred: i.e. with certain PTH(1-31) analogs binding to PTHR-delNt, the curve fits and IC50 values were derived by extrapolating the data to the maximum inhibition attained by [Aib^1,3,M]PTH(1-15)NH2. Paired data sets were statistically compared using a two-tailed Student's t-test, assuming unequal variances for the two sets.

[2] = Circular dichroism spectroscopy, helical residues per peptide chain; assay type: physicochemical; conditions: calculated from [θ]222
Procedure, shortened: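 CD spectra recorded at 20 °C, four scans averaged; peptide concentration checked by A280 with the single-Trp extinction coefficient of 5700 M^−1. Helical residues per chain calculated as −[θ]222×30/28,000 from mean residue ellipticity at 222 nm.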

[3] = [Ala1,Arg19]hPTH(1-31)NH2 analogs, 125I-[Nle8,21,Tyr34]rPTH(1-34)NH2 tracer
[4] = [Ala1,Arg19]hPTH(1-31)NH2 analogs
[5] = hPTH(1-31)NH2 analogs, 125I-[Nle8,21,Tyr34]ratPTH(1-34)NH2 tracer

Compound	detectable binding to the intact PTHR (in words) [1]	CD helical residues [2, 4]	IC50 [1, 5] [µM]	CD helical residues ([2]; hPTH(1-31)NH2 analogs)	also measured
AVSEIQLMHNLGKHLNSMRRVEWERKKLQDV-NH2 [Leu^24→Glu]	abolished detectable binding	6	–	–	IC50 [1, 3]: > 10 µM
SVSEIQLMHNLGKHLNSMEQVEWLRKKLQDV-NH2 [Arg^20→Gln]	complete loss of detectable binding affinity	–	> 10	7	–
SVSEIQLMHNLGKHLNSMRRVEWLRKKLQDV-NH2 [Glu^19→Arg]	–	–	–	8	enhancement in apparent PTHR-binding affinity relative to parent peptide [1]: ≦two-fold
CC[C@H](C)[C@H](NC(=O)[C@H](CCC(=O)O)NC(=O)[C@H](CO)NC(=O)[C@@H](NC(=O)[C@H](C)N)C(C)C)C(=O)N[C@@H](CCC(N)=O)C(=O)N[C@@H](CC(C)C)C(=O)N[C@@H](CCSC)C(=O)N[C@@H](Cc1c[nH]cn1)C(=O)N[C@@H](CC(N)=O)C(=O)N[C@@H](CC(C)C)C(=O)NCC(=O)N[C@@H](CCCCN)C(=O)N[C@@H](Cc1c[nH]cn1)C(=O)N[C@@H](CC(C)C)C(=O)N[C@@H](CC(N)=O)C(=O)N[C@@H](CO)C(=O)N[C@@H](CCSC)C(=O)N[C@@H](CCCNC(=N)N)C(=O)N[C@@H](CC1CCCCC1)C(=O)N[C@H](C(=O)N[C@@H](CCC(=O)O)C(=O)N[C@@H](Cc1c[nH]c2ccccc12)C(=O)N[C@@H](CC(C)C)C(=O)N[C@@H](CCCNC(=N)N)C(=O)N[C@@H](CCCCN)C(=O)N[C@@H](CCCCN)C(=O)N[C@@H](CC(C)C)C(=O)N[C@@H](CCC(N)=O)C(=O)N[C@@H](CC(=O)O)C(=O)N[C@H](C(N)=O)C(C)C)C(C)C [Arg^20→Cha, AlaValSerGluIleGlnLeuMetHisAsnLeuGlyLysHisLeuAsnSerMetArgChaValGluTrpLeuArgLysLysLeuGlnAspVal] (H-AVSEIQLMHNLGKHLNSMR[Cha]VEWLRKKLQDV-NH2; N-terminus assumed)	–	16	–	–	reduction (alteration) of apparent binding affinity for the intact PTHR relative to parent peptide [1]: 120 fold
AVSEIQLMHNLGKHLNSMRRVEWLREKLQDV-NH2 [Lys^26→Glu]	–	6	–	–	reduction (alteration) of apparent binding affinity for the intact PTHR relative to parent peptide [1]: two- to five-fold reductions
CC[C@H](C)[C@H](NC(=O)[C@H](CCC(=O)O)NC(=O)[C@H](CO)NC(=O)[C@@H](NC(=O)[C@H](C)N)C(C)C)C(=O)N[C@@H](CCC(N)=O)C(=O)N[C@@H](CC(C)C)C(=O)N[C@@H](CCSC)C(=O)N[C@@H](Cc1c[nH]cn1)C(=O)N[C@@H](CC(N)=O)C(=O)N[C@@H](CC(C)C)C(=O)NCC(=O)N[C@@H](CCCCN)C(=O)N[C@@H](Cc1c[nH]cn1)C(=O)N[C@@H](CC(C)C)C(=O)N[C@@H](CC(N)=O)C(=O)N[C@@H](CO)C(=O)N[C@@H](CCSC)C(=O)N[C@@H](CCCNC(=N)N)C(=O)N[C@@H](CCCNC(=N)N)C(=O)N[C@H](C(=O)N[C@@H](CCC(=O)O)C(=O)N[C@@H](Cc1c[nH]c2ccccc12)C(=O)N[C@@H](CC(C)C)C(=O)N[C@@H](CCCNC(=N)N)C(=O)N[C@@H](CCCCN)C(=O)N[C@@H](CCCCN)C(=O)N[C@@H](CC(C)C)C(=O)N[C@@H](CCC(N)=O)C(=O)N[C@@H](CC1CCCCC1)C(=O)N[C@H](C(N)=O)C(C)C)C(C)C [Asp^30→Cha] (H-AVSEIQLMHNLGKHLNSMRRVEWLRKKLQ[Cha]V-NH2; N-terminus assumed)	–	8	–	–	IC50 [1, 3]: 0.054 ± 0.007 µM
SVSEIQLMHNLGKHLNSMRRVAWLRKKLQDV-NH2 [Glu^19,22→Arg,Ala]	–	–	0.054 ± 0.013	8	enhancement in apparent PTHR-binding affinity relative to parent peptide [1]: did not lead to further improvements
SVSEIQLMHNLGKHLNSMERVAWLRKKLQDV-NH2 [Glu^22→Ala]	–	–	–	9	enhancement in apparent PTHR-binding affinity relative to parent peptide [1]: ≦two-fold
CC[C@H](C)[C@H](NC(=O)[C@H](CCC(=O)O)NC(=O)[C@H](CO)NC(=O)[C@@H](NC(=O)[C@@H](N)CO)C(C)C)C(=O)N[C@@H](CCC(N)=O)C(=O)N[C@@H](CC(C)C)C(=O)N[C@@H](CCSC)C(=O)N[C@@H](Cc1c[nH]cn1)C(=O)N[C@@H](CC(N)=O)C(=O)N[C@@H](CC(C)C)C(=O)NCC(=O)N[C@@H](CCCCN)C(=O)N[C@@H](Cc1c[nH]cn1)C(=O)N[C@@H](CC(C)C)C(=O)N[C@@H](CC(N)=O)C(=O)N[C@@H](CO)C(=O)N[C@@H](CCSC)C(=O)N[C@@H](CCC(=O)O)C(=O)N[C@@H](CCCN)C(=O)N[C@H](C(=O)N[C@@H](CCC(=O)O)C(=O)N[C@@H](Cc1c[nH]c2ccccc12)C(=O)N[C@@H](CC(C)C)C(=O)N[C@@H](CCCNC(=N)N)C(=O)N[C@@H](CCCCN)C(=O)N[C@@H](CCCCN)C(=O)N[C@@H](CC(C)C)C(=O)N[C@@H](CCC(N)=O)C(=O)N[C@@H](CC(=O)O)C(=O)N[C@H](C(N)=O)C(C)C)C(C)C [Arg^20→Orn] (H-SVSEIQLMHNLGKHLNSME[Orn]VEWLRKKLQDV-NH2; N-terminus assumed)	–	–	> 10	6	–
SVSEIQLMHNLGKHLNSMEKVEWLRKKLQDV-NH2 [Arg^20→Lys]	complete loss of detectable binding affinity	–	> 10	8	–
Arg^20→Apa: hPTH(1-31)NH2 analog with Arg^20 replaced by (S)-2-amino-4[(2-amino)pyrimidinyl]methylalanine (Apa) (SVSEIQLMHNLGKHLNSME[Apa]VEWLRKKLQDV-NH2)	complete loss of detectable binding affinity	–	> 10	–	–
CC[C@H](C)[C@H](NC(=O)[C@H](CCC(=O)O)NC(=O)[C@H](CO)NC(=O)[C@@H](NC(=O)[C@@H](N)CO)C(C)C)C(=O)N[C@@H](CCC(N)=O)C(=O)N[C@@H](CC(C)C)C(=O)N[C@@H](CCSC)C(=O)N[C@@H](Cc1c[nH]cn1)C(=O)N[C@@H](CC(N)=O)C(=O)N[C@@H](CC(C)C)C(=O)NCC(=O)N[C@@H](CCCCN)C(=O)N[C@@H](Cc1c[nH]cn1)C(=O)N[C@@H](CC(C)C)C(=O)N[C@@H](CC(N)=O)C(=O)N[C@@H](CO)C(=O)N[C@@H](CCSC)C(=O)N[C@@H](CCC(=O)O)C(=O)N[C@@H](Cc1ccc(NC(=N)N)cc1)C(=O)N[C@H](C(=O)N[C@@H](CCC(=O)O)C(=O)N[C@@H](Cc1c[nH]c2ccccc12)C(=O)N[C@@H](CC(C)C)C(=O)N[C@@H](CCCNC(=N)N)C(=O)N[C@@H](CCCCN)C(=O)N[C@@H](CCCCN)C(=O)N[C@@H](CC(C)C)C(=O)N[C@@H](CCC(N)=O)C(=O)N[C@@H](CC(=O)O)C(=O)N[C@H](C(N)=O)C(C)C)C(C)C [Arg^20→Gph] (H-SVSEIQLMHNLGKHLNSME[Phe(4-guanidino)]VEWLRKKLQDV-NH2; N-terminus assumed)	complete loss of detectable binding affinity	–	> 10	–	–
